In assay [1] the test system is Mycobacterium tuberculosis. The assay can be described thus: Antimycobacterial activity against Mycobacterium bovis BCG after 14 days by inverted microscopic analysis. It counts as functional. Particulars: variant bovis BCG, 336 h.
For assay [2], the system named is Mycobacterium tuberculosis. The assay can be described thus: Antimycobacterial activity against Mycobacterium bovis BCG after 14 days by inverted microscopic analysis in presence of plasma. Type of assay: functional. The conditions noted are these: variant bovis BCG, 336 h.
The test system of assay [3] is Mycobacterium tuberculosis. The assay can be described thus: Antimycobacterial activity against Mycobacterium bovis BCG assessed as rugged membrane surface by atomic force microscopic analysis. Type of assay: functional, organism-based. Particulars: variant bovis BCG.
Assay [4] deals with Mycobacterium tuberculosis. The assay can be described thus: Antimycobacterial activity against Mycobacterium bovis BCG assessed as pore and grove formation by atomic force microscopic analysis. It counts as functional, organism-based. Particulars: variant bovis BCG.
Assay [5] deals with Mycobacterium tuberculosis. The assay can be described thus: Antimycobacterial activity against Mycobacterium bovis BCG assessed as effect on membrane morphology by atomic force microscopic analysis. Type of assay: functional, organism-based. The conditions noted are these: variant bovis BCG.
Assay [6] concerns Mycobacterium tuberculosis. The assay can be described thus: Antimycobacterial activity against Mycobacterium bovis BCG assessed as effect on membrane topology by atomic force microscopic analysis. Particulars: variant bovis BCG. It counts as functional, organism-based.

Converted amounts (≈) assume the structure as drawn. The source made the active and inactive calls. The calls are words filed in the database; no cut-off is given here.

With `COC(=O)CC[C@@H](C)[C@H]1CC[C@H]2[C@@H]3CC[C@@H]4C[C@H](OC(=O)C[n+]5ccccc5)CC[C@]4(C)[C@H]3CC[C@]12C`, in assay [1], the MIC99 was > 50 µM.

With `COC(=O)CC[C@@H](C)[C@H]1CC[C@H]2[C@@H]3CC[C@@H]4C[C@H](OC(=O)C[N+](C)(C)C)CC[C@]4(C)[C@H]3C[C@H](OC(=O)C[N+](C)(C)C)[C@]12C`, the MIC99 in assay [1] was 25 µM.

For the compound `COC(=O)CC[C@@H](C)[C@H]1CC[C@H]2[C@@H]3[C@H](OC(=O)C[n+]4ccccc4)C[C@@H]4C[C@H](OC(=O)C[n+]5ccccc5)CC[C@]4(C)[C@H]3C[C@H](OC(=O)C[n+]3ccccc3)[C@]12C.[Cl-].[Cl-].[Cl-]`, the MIC99 in assay [1] was 6.25 µM.

`COC(=O)CC[C@@H](C)[C@H]1CC[C@H]2[C@@H]3[C@H](OC(=O)C[N+](C)(C)C)C[C@@H]4C[C@H](OC(=O)C[N+](C)(C)C)CC[C@]4(C)[C@H]3CC[C@]12C`: the MIC99 in assay [1] came out at 4.68 µM.

As for `COC(=O)CC[C@@H](C)[C@H]1CC[C@H]2[C@@H]3CC[C@@H]4C[C@H](OC(=O)C[n+]5ccc(N(C)C)cc5)CC[C@]4(C)[C@H]3C[C@H](OC(=O)C[n+]3ccc(N(C)C)cc3)[C@]12C`, in assay [1], the MIC99 was determined as 2.34 µM.

Regarding `NNC(=O)c1ccncc1` [ISONIAZID], the MIC99 in assay [1] is 0.78 µM (≈ 0.107 µg/mL).

In turn, `COC(=O)CC[C@@H](C)[C@H]1CC[C@H]2[C@@H]3[C@H](OC(=O)C[n+]4ccccc4)C[C@@H]4C[C@H](OC(=O)C[n+]5ccccc5)CC[C@]4(C)[C@H]3CC[C@]12C` had an MIC99 in assay [1] of 9.38 µM.

In assay [1], `C[C@H]1COc2c(N3CCN(C)CC3)c(F)cc3c(=O)c(C(=O)O)cn1c23` [LEVOFLOXACIN] returned an MIC99 of 0.39 µM (≈ 0.141 µg/mL).

In turn, `COC(=O)CC[C@@H](C)[C@H]1CC[C@H]2[C@@H]3[C@H](OC(=O)C[N+]4(C)CCCCC4)C[C@@H]4C[C@H](OC(=O)C[N+]5(C)CCCCC5)CC[C@]4(C)[C@H]3C[C@H](OC(=O)C[N+]3(C)CCCCC3)[C@]12C.[Cl-].[Cl-].[Cl-]` registered an MIC99 in assay [1] of 6.25 µM.

`COC(=O)CC[C@@H](C)[C@H]1CC[C@H]2[C@@H]3CC[C@@H]4C[C@H](OC(=O)C[N+]5(C)CCCCC5)CC[C@]4(C)[C@H]3CC[C@]12C`: in assay [1], the MIC99 was determined as 50 µM.

Take `COC(=O)CC[C@@H](C)[C@H]1CC[C@H]2[C@@H]3CC[C@@H]4C[C@H](OC(=O)C[n+]5ccccc5)CC[C@]4(C)[C@H]3C[C@H](OC(=O)C[n+]3ccccc3)[C@]12C`: the MIC99 in assay [1] is 6.25 µM.

In turn, `COC(=O)CC[C@@H](C)[C@H]1CC[C@H]2[C@@H]3[C@H](OC(=O)C[n+]4ccc(N(C)C)cc4)C[C@@H]4C[C@H](OC(=O)C[n+]5ccc(N(C)C)cc5)CC[C@]4(C)[C@H]3CC[C@]12C` had an MIC99 in assay [1] of 3.12 µM.

As to `COC(=O)CC[C@@H](C)[C@H]1CC[C@H]2[C@@H]3[C@H](OC(=O)C[n+]4ccc(N(C)C)cc4)C[C@@H]4C[C@H](OC(=O)C[n+]5ccc(N(C)C)cc5)CC[C@]4(C)[C@H]3C[C@H](OC(=O)C[n+]3ccc(N(C)C)cc3)[C@]12C.[Cl-].[Cl-].[Cl-]`, the MIC99 in assay [1] stood at 3.12 µM; in assay [2] it was 6.25 µM. Also, the outcome in assay [3] and in assay [4] was Active.

As to `COC(=O)CC[C@@H](C)[C@H]1CC[C@H]2[C@@H]3CC[C@@H]4C[C@H](OC(=O)C[N+]5(C)CCCCC5)CC[C@]4(C)[C@H]3C[C@H](OC(=O)C[N+]3(C)CCCCC3)[C@]12C`, the MIC99 in assay [1] was 3.12 µM.

Turning to `COC(=O)CC[C@@H](C)[C@H]1CC[C@H]2[C@@H]3CC[C@@H]4C[C@H](OC(=O)CN)CC[C@]4(C)[C@H]3CC[C@]12C`, the MIC99 in assay [1] was > 50 µM.

As for `COC(=O)CC[C@@H](C)[C@H]1CC[C@H]2[C@@H]3[C@H](OC(=O)CN)C[C@@H]4C[C@H](OC(=O)CN)CC[C@]4(C)[C@H]3CC[C@]12C`, the MIC99 in assay [1] stood at 37.5 µM (≈ 19.5 µg/mL).

Take `COC(=O)CC[C@@H](C)[C@H]1CC[C@H]2[C@@H]3CC[C@@H]4C[C@H](OC(=O)C[n+]5ccc(N(C)C)cc5)CC[C@]4(C)[C@H]3CC[C@]12C`: the MIC99 in assay [1] was 50 µM.

In assay [1], `COC(=O)CC[C@@H](C)[C@H]1CC[C@H]2[C@@H]3CC[C@@H]4C[C@H](OC(=O)C[N+](C)(C)C)CC[C@]4(C)[C@H]3CC[C@]12C` displayed an MIC99 of 50 µM.

For the compound `COC(=O)CC[C@@H](C)[C@H]1CC[C@H]2[C@@H]3CC[C@@H]4C[C@H](OC(=O)CN)CC[C@]4(C)[C@H]3C[C@H](OC(=O)CN)[C@]12C`, in assay [1], the MIC99 was 25 µM (≈ 13 µg/mL).

In assay [1], `COC(=O)CC[C@@H](C)[C@H]1CC[C@H]2[C@@H]3[C@H](OC(=O)C[N+]4(C)CCCCC4)C[C@@H]4C[C@H](OC(=O)C[N+]5(C)CCCCC5)CC[C@]4(C)[C@H]3CC[C@]12C` came in with an MIC99 of 6.25 µM.

In assay [1], `COC(=O)CC[C@@H](C)[C@H]1CC[C@H]2[C@@H]3[C@H](OC(=O)C[N+](C)(C)C)C[C@@H]4C[C@H](OC(=O)C[N+](C)(C)C)CC[C@]4(C)[C@H]3C[C@H](OC(=O)C[N+](C)(C)C)[C@]12C.[Cl-].[Cl-].[Cl-]` yielded an MIC99 of 6.25 µM.

For the compound `COC(=O)CC[C@@H](C)[C@H]1CC[C@H]2[C@@H]3[C@H](OC(=O)CN)C[C@@H]4C[C@H](OC(=O)CN)CC[C@]4(C)[C@H]3C[C@H](OC(=O)CN)[C@]12C.Cl.Cl.Cl`, in assay [1], the MIC99 came to 18.8 µM. The result in assay [5] and in assay [6] was inactive.

Broadly, the MIC99 is the lowest concentration that inhibits either 99% of growth or 99% of the strains tested, depending on the study.

Values taken from ChEMBL document CHEMBL3621073, “Bile acid amphiphiles with tunable head groups as highly selective antitubercular agents” (Medchemcomm, 2014).
